{"source": "the supplement of paper PMC10307832", "assay_in_all_cases": "relative viability (nuclei count vs DMSO), 5 days (fraction); higher = more cells survive", "key": {"[1]": {"system": "NCI-H1395", "in_short": "(§1)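 Lung cancer cell lines, seeded in 1536-well plates, were treated the following day by pin tool with a single drug or with five library-drug doses (not always all listed) in √10 steps on top of a fixed anchor-drug dose. Cells were fixed and nuclei stained in one step after 5 days, and nuclei were counted. Relative viability is the nuclei count for treated wells divided by that for vehicle wells, reported as medians of duplicate plates.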"}, "[2]": {"system": "NCI-H2009", "in_short": "as §1"}, "[3]": {"system": "EMC-BAC-2", "in_short": "as §1"}, "[4]": {"system": "NCI-H1975", "in_short": "as §1"}, "[5]": {"system": "NCI-H460", "in_short": "as §1"}, "[6]": {"system": "COR-L 105", "in_short": "as §1"}, "[7]": {"system": "HCC-827", "in_short": "as §1"}, "[8]": {"system": "SK-LU-1", "in_short": "as §1"}, "[9]": {"system": "NCI-H2228", "in_short": "as §1"}, "[10]": {"system": "LCLC-103H", "in_short": "as §1"}, "[11]": {"system": "NCI-H1792", "in_short": "as §1"}, "[12]": {"system": "NCI-H1755", "in_short": "as §1"}}, "data": [{"smiles": "COc1cc(N2CCC(C(N)=O)CC2)ccc1Nc1nc(N)c(Cl)c(Nc2ccccc2S(=O)(=O)C(C)C)n1", "note": "[HG-5-88-01] + CS(=O)(=O)N1CCN(Cc2cc3nc(-c4cccc5[nH]ncc45)nc(N4CCOCC4)c3s2)CC1 [Pictilisib] (partner 1 µM)", "values": [{"measurement": "relative viability", "setting": "[1]; first compound 0.04 µM", "result": 0.582}, {"measurement": "relative viability", "setting": "[1]; first compound 0.1265 µM", "result": 0.587}, {"measurement": "relative viability", "setting": "[1]; first compound 0.4 µM", "result": 0.598}, {"measurement": "relative viability", "setting": "[1]; first compound 1.265 µM", "result": 0.584}, {"measurement": "relative viability", "setting": "[1]; first compound 4 µM", "result": 0.523}, {"measurement": "relative viability", "setting": "[2]; first compound 0.04 µM", "result": 0.771}, {"measurement": "relative viability", "setting": "[2]; first compound 0.1265 µM", "result": 0.882}, {"measurement": "relative viability", "setting": "[2]; first compound 0.4 µM", "result": 0.693}, {"measurement": "relative viability", "setting": "[2]; first compound 1.265 µM", "result": 0.793}, {"measurement": "relative viability", "setting": "[2]; first compound 4 µM", "result": 0.631}, {"measurement": "relative viability", "setting": "[3]; first compound 0.04 µM", "result": 0.531}, {"measurement": "relative viability", "setting": "[3]; first compound 0.1265 µM", "result": 0.509}, {"measurement": "relative viability", "setting": "[3]; first compound 0.4 µM", "result": 0.495}, {"measurement": "relative viability", "setting": "[3]; first compound 1.265 µM", "result": 0.554}, {"measurement": "relative viability", "setting": "[3]; first compound 4 µM", "result": 0.505}, {"measurement": "relative viability", "setting": "[4]; first compound 0.04 µM", "result": 0.32}, {"measurement": "relative viability", "setting": "[4]; first compound 0.1265 µM", "result": 0.277}, {"measurement": "relative viability", "setting": "[4]; first compound 0.4 µM", "result": 0.244}, {"measurement": "relative viability", "setting": "[4]; first compound 1.265 µM", "result": 0.191}, {"measurement": "relative viability", "setting": "[4]; first compound 4 µM", "result": 0.17}, {"measurement": "relative viability", "setting": "[5]; first compound 0.04 µM", "result": 0.379}, {"measurement": "relative viability", "setting": "[5]; first compound 0.1265 µM", "result": 0.296}, {"measurement": "relative viability", "setting": "[5]; first compound 0.4 µM", "result": 0.395}, {"measurement": "relative viability", "setting": "[5]; first compound 1.265 µM", "result": 0.332}, {"measurement": "relative viability", "setting": "[5]; first compound 4 µM", "result": 0.277}, {"measurement": "relative viability", "setting": "[6]; first compound 0.04 µM", "result": 0.348}, {"measurement": "relative viability", "setting": "[6]; first compound 0.1265 µM", "result": 0.537}, {"measurement": "relative viability", "setting": "[6]; first compound 0.4 µM", "result": 0.336}, {"measurement": "relative viability", "setting": "[6]; first compound 1.265 µM", "result": 0.309}, {"measurement": "relative viability", "setting": "[6]; first compound 4 µM", "result": 0.342}, {"measurement": "relative viability", "setting": "[7]; first compound 0.04 µM", "result": 1.02}, {"measurement": "relative viability", "setting": "[7]; first compound 0.1265 µM", "result": 0.931}, {"measurement": "relative viability", "setting": "[7]; first compound 0.4 µM", "result": 0.924}, {"measurement": "relative viability", "setting": "[7]; first compound 1.265 µM", "result": 0.552}, {"measurement": "relative viability", "setting": "[7]; first compound 4 µM", "result": 0.56}, {"measurement": "relative viability", "setting": "[8]; first compound 0.04 µM", "result": 0.539}, {"measurement": "relative viability", "setting": "[8]; first compound 0.1265 µM", "result": 0.572}, {"measurement": "relative viability", "setting": "[8]; first compound 0.4 µM", "result": 0.539}, {"measurement": "relative viability", "setting": "[8]; first compound 1.265 µM", "result": 0.594}, {"measurement": "relative viability", "setting": "[8]; first compound 4 µM", "result": 0.6}, {"measurement": "relative viability", "setting": "[9]; first compound 0.04 µM", "result": 0.215}, {"measurement": "relative viability", "setting": "[9]; first compound 0.1265 µM", "result": 0.177}, {"measurement": "relative viability", "setting": "[9]; first compound 0.4 µM", "result": 0.248}, {"measurement": "relative viability", "setting": "[9]; first compound 1.265 µM", "result": 0.144}, {"measurement": "relative viability", "setting": "[9]; first compound 4 µM", "result": 0.157}, {"measurement": "relative viability", "setting": "[10]; first compound 0.04 µM", "result": 0.643}, {"measurement": "relative viability", "setting": "[10]; first compound 0.1265 µM", "result": 0.555}, {"measurement": "relative viability", "setting": "[10]; first compound 0.4 µM", "result": 0.484}, {"measurement": "relative viability", "setting": "[10]; first compound 1.265 µM", "result": 0.608}, {"measurement": "relative viability", "setting": "[10]; first compound 4 µM", "result": 0.426}, {"measurement": "relative viability", "setting": "[11]; first compound 0.04 µM", "result": 0.372}, {"measurement": "relative viability", "setting": "[11]; first compound 0.1265 µM", "result": 0.272}, {"measurement": "relative viability", "setting": "[11]; first compound 0.4 µM", "result": 0.313}, {"measurement": "relative viability", "setting": "[11]; first compound 1.265 µM", "result": 0.253}, {"measurement": "relative viability", "setting": "[11]; first compound 4 µM", "result": 0.297}, {"measurement": "relative viability", "setting": "[12]; first compound 0.1265 µM", "result": 0.508}, {"measurement": "relative viability", "setting": "[12]; first compound 0.4 µM", "result": 0.438}]}]}
